Like-named read-outs stand apart in the source and are kept apart here.
Experiments:
IRF transcription factor = experiment: IRF activation in THP1-Dual cells after cGAMP (luciferase assay); assay type: cell-based, human; settings: according to a dose effect; stimulation of the STING interferon pathway by cGAMP, 24 h
Procedure: The THP1-Dual reporter cell line was cultured at 5×10^5/ml. […] The THP1-Dual cells were stimulated for 24 h with the STING pathway agonist, cGAMP. Luciferase assay (luminometry)
The THP1-Dual cells express the Lucia luciferase reporter gene under a promoter containing five IFN response elements. The THP1-Dual cells allow the IRF pathway to be studied by measuring Lucia luciferase activity. Lucia luciferase activity is determined by means of the QUANTI-Luc Gold assay (InvivoGen). The THP1-Dual cells are cultured in a 96-well plate (200 μL/well). After LPS or R848 treatment, for each well, 10 μL of culture medium are added to 50 μL of QUANTI-Luc GOLD solution and the light signal produced is measured by means of a luminometer.

IRFs = experiment: Interferon pathway (IRF) activity in reporter cells fed supernatants of R848-stimulated PBMCs; assay type: cell-based, human; settings: for IC50: Homo sapiens, PBMC, read-out: IC50 IFR; for secretion of interferons on PBMCs: preventively, 1 h before stimulation by TLR7/8
Text: (§1) The supernatants were collected for cytokine detection.

[1] = system: peripheral blood mononuclear cells (PBMCs); experiment: Interferon secretion by PBMCs stimulated with influenza virus (THP1-Dual reporter); assay type: cell-based, human; settings: 20 μM, 1 h before stimulation by the influenza virus, 24 h
[2] = system: peripheral blood mononuclear cells (PBMCs); experiment: LegendPlex assay of cytokines in supernatants of stimulated PBMCs; settings: for secretion of TNFα, IL-1β, IL-6, IL-18, IL-23, IFNγ and MCP1 on PBMCs: stimulation by TLR4 (LPS 100 ng/ml, 24 h); for secretion of TNFα, IL-1β, IL-6, IL-10, IL-12 p70, IL-18, IL-23, IL-33, IFNα2, IFNγ and MCP1 on PBMCs: stimulation by TLR7/8 (R848 5 μg/ml, 24 h)
Procedure: The in vitro experiments were carried out using human peripheral blood mononuclear cells (PBMCs) isolated by density with centrifugation using a medium for separating white blood cells from peripheral blood ([sequence] Technologies). The blood from the healthy donors was obtained at the “Etablissement Frangais du Sang” (French Blood Establishment) (convention #07/CABANEL/106; Paris, France). […] The peripheral blood mononuclear cells (PBMCs) were cultured in RPMI 1640 (Sigma) containing 10% inactivated fetal calf serum and 1 mM glutamine (Hyclone, Logan, UT).
The PBMCs were cultured at 2×10^6 cells/ml. The cells were then incubated with the compounds of formula (V) and (VI) at the indicated concentrations for 1 hour before stimulation. The PBMCs were then stimulated for 24 h with the TLR7/8 agonist Resiquimod—R848 at 5 μg/ml and the TLR4 agonist Lipopolysaccharide—LPS at 100 ng/ml. The supernatants were collected for cytokine detection.
An assay of the cytokines in the supernatants of the cell cultures was carried out using the “LegendPlex Antivirus Human Panel” or “LegendPlex Human Inflammation Panel” (Biolegend, San Diego, USA) according to the manufacturer's instructions.

monocytes [3] = experiment: Intracellular TNFα production in isolated monocytes by flow cytometry; assay type: cell-based, human
[4] = system: peripheral blood mononuclear cells (PBMCs); experiment: Interferon secretion by PBMCs stimulated with HIV (THP1-Dual reporter); assay type: cell-based, human; settings: 20 μM, 1 h before stimulation by the HIV virus, 24 h
Text: as §1

monocytes [5] = experiment: TNFα production in monocytes treated with siPDK1 or siCTL and stimulated with R848; assay type: cell-based, human; settings: 20 μM, 1 h before R848 1 μg/ml
[6] = system: NF-κB transcription factor; experiment: NF-κB activity in THP1-Dual reporter cells fed supernatants of R848-stimulated PBMCs; settings: for IC50: Homo sapiens, THP1-Dual, read-out: IC50 NF-κB; for secretion of inflammatory cytokines on PBMCs: preventively, 1 h before stimulation by TLR7/8
Procedure: The in vitro experiments were carried out using human peripheral blood mononuclear cells (PBMCs) isolated by density with centrifugation using a medium for separating white blood cells from peripheral blood ([sequence] Technologies). […] The peripheral blood mononuclear cells (PBMCs) were cultured in RPMI 1640 (Sigma) containing 10% inactivated fetal calf serum and 1 mM glutamine (Hyclone, Logan, UT).
The PBMCs were cultured at 2×10^6 cells/ml. The cells were then incubated with the compounds of the invention at the indicated concentrations for 1 h before stimulation. The PBMCs were then stimulated for 24 h with the TLR7/8 agonist Resiquimod (R848) at 5 μg/ml. The supernatants were collected for cytokine detection.
The activity of the NF-κB transcription Factor and the induction of the interferon (IFN) pathway via interferon regulatory factors (IRFs) were measured using the THP1-Dual reporter cell line from InvivoGen. The PBMC culture supernatants were added to the THP1-Dual cultures at a rate of 0.4×10^6 cells/ml for 24 h. The activity of the NF-κB transcription factor was measured with QUANTI-Blue, a SEAP detection agent following the supplier's recommendations. The activity of the IRFs was measured with QUANTI-Luc, a luciferase detection reagent following the supplier's recommendations.

B lymphocytes = experiment: B lymphocyte activation (CD69) by flow cytometry after TLR9 stimulation; assay type: cell-based, human; settings: 20 μM, 1 h before TLR9 agonist CpG-A, 16 h
Procedure: The B lymphocytes were purified by negative selection with the “B Cell Isolation Kit” (Miltenyi).
The B lymphocytes were cultured at 1×10^6/ml. […] They were stimulated for 16 h (flow cytometry) with the TLR9 agonist CpG-A at […]. The cells were recovered for flow cytometry.
After washing, the cells were resuspended in PBS containing 2% of FCS and 2 mM of EDTA and then labeled with an anti-CD69 antibody (clone REA824) from Miltenyi Biotec, used at 1/100° for 30 min at 4° C. The cells were washed twice and then passed into flow cytometry. The data acquisition was carried out on the Canto II flow cytometer using Diva software (BD Biosciences, San Jose, CA). FlowJo software was used to analyze the data.

pyruvate kinase (PK) = experiment: Pyruvate kinase activity assay; assay type: biochemical
Procedure: Inhibitors (2 μL) are added to 193 μL of a mixture containing PEP, ADP, MgSO4, β-NADH and L-lactic dehydrogenase. After reading at 340 nm, 7 μL of pyruvate kinase are added to the mixture. The samples are read at 340 nm every 1 to 2 min for 20 min.

[7] = system: plasmacytoid dendritic cells (pDCs); assay type: cell-based, human
[8] = system: NF-κB transcription factor; experiment: NF-κB activation in THP1-Dual cells (SEAP assay); assay type: cell-based, human; settings: according to a dose effect
Procedure: The THP1-Dual reporter cell line was cultured at 5×10^5/ml.
The THP1-Dual cells express the secreted embryonic alkaline phosphatase (SEAP) reporter gene under a promoter containing five copies of the NF-κB consensus transcriptional response element. The THP1-Dual cells allow the NF-κB pathway to be studied by monitoring the SEAP activity. The SEAP alkaline phosphatase activity is determined by means of the QUANTI-Blue colorimetric enzyme assay (InvivoGen). The THP1-Dual cells are cultured in a 96-well plate (200 μL/well). After LPS or R848 treatment, for each well, 20 μL of culture medium are added to 180 μL of the QUANTI-Blue solution and incubated at 37° C. for 2 h. Absorbance (measurement at 655 nm with a spectrophotometer (Bio-Rad Model 680 microplate reader) is proportional to SEAP activity.

[9] = system: THP1 human monocytic cell line; experiment: RT-qPCR of pro-inflammatory gene transcription in THP1-Dual monocytes; assay type: cell-based; settings: dose effect; for concentration from which transcription of the genes coding for TNFα and IL-1β is reduced: induced by LPS, 1 hour; for concentration from which transcription of the genes coding for TNFα, IL-6, MCP1 and IL-1β is reduced: induced by R848 5 μg/ml, 16 h
Procedure: The THP1-Dual cell lines were cultured at 1×10^6 cells/ml.
The THP1-Dual cells (InvivoGen) were stimulated for 16 h with the TLR7/8 agonist (R848) at 5 μg/ml or for 1 hour with the TLR4 agonist (LPS) at 100 ng·ml, respectively. The cells were washed in PBS and lysed to prepare the mRNAs for an RT-qPCR analysis.
The total RNAs are extracted from the cells with the E.Z.N.A. kit. Total RNA Kit 1 (Omega Bio-tek) according to the supplier's instructions. The RNA concentration is measured by means of a spectrophotometer (Nanodrop ND-1000). The total RNA is reverse-transcribed into cDNA by means of the PrimeScript RT Master Mix kit (Takara RR036A). The cDNA synthesis is carried out according to the following protocol: 300-500 ng of RNA in 8 μL of water free of RNase, supplemented with 2 μL of the reaction buffer (containing the PrimeScript reverse transcriptase, RNase inhibitors, oligo(dT) primers, random 6mers and the mix of dNTPs). The enzymatic reverse transcription reaction is carried out at 37° C. for 15 min. The enzyme is inactivated by incubating the sample at 85° C. for 15 sec.
The quantitative real-time PCR is carried out according to the following conditions: cDNA diluted to 1/10th is added to the following mixture: 3.8 μL of H2O, […] of sense and antisense primers (10 μM) (Table 3), 5 μL of Absolute qPCR SYBR Green Mix containing Thermo-Start DNA Polymerase, MgCl2, SYBR Green and dNTPs (Eurogentec). The assays are carried out in triplicate in a 384-well plate (Thermo Scientific). DNA amplification by quantitative PCR is carried out in the CFX384 system (Bio-Rad) with the following program: 3 min at 95° C./5 sec at 95° C. and 30 sec at 60° C. repeated 40 cycles/2 min at 72° C. and 30 sec at 95° C. followed by a dissociation step which makes it possible to verify the specificity of the amplification product. The DNA amplification data are analyzed with Bio-Rad CFX Manager software.

[10] = PBMCs incubated with compound 1 h before R848 5 μg/ml for 24 h, supernatants on reporter cells, QUANTI-Luc
[11] = Condition A: 20 μM, 1 h before stimulation of TLR7/8 (R848 5 μg/ml)
[12] = Condition B: 20 μM, 1 h before stimulation of TLR4 (LPS 100 ng/ml)
[13] = Condition C: 20 μM, 1 h before stimulation of TLR2 (LTA 1 μg/ml)
[14] = Condition B: 20 μM, 1 h before stimulation by the influenza virus
[15] = stimulation of TLR4 by LPS, 24 h
[16] = stimulation of TLR7/8 by R848, 24 h

Structure (SMILES) | activation of the IRF transcription factor in THP1-Dual cells (IRF transcription factor) | IC50 (IRFs; [10]) | secretion of interferons on PBMCs (IRFs) | secretion of interferons by PBMCs [1] | secretion of TNFα, IL-1β, IL-6, IL-18, IL-23, IFNγ and MCP1 on PBMCs [2] | secretion of TNFα, IL-1β, IL-6, IL-10, IL-12 p70, IL-18, IL-23, IL-33, IFNα2, IFNγ and MCP1 on PBMCs [2] | production of TNFα on monocytes (monocytes [3]; [11]) | production of TNFα on monocytes (monocytes [3]; [12]) | production of TNFα on monocytes (monocytes [3]; [13]) | secretion of interferons by PBMCs [4] | production of TNFα by monocytes treated with control siRNAs (siCTL) (monocytes [5]) | production of TNFα by monocytes treated with siRNAs targeting PDK1 (siPDK1) (monocytes [5]) | IC50 [6] | secretion of inflammatory cytokines on PBMCs [6] | activation of B lymphocytes (CD69 membrane activation marker) (B lymphocytes) | enzymatic activity of pyruvate kinase (PK) (pyruvate kinase (PK)) | production of TNFα on plasmacytoid dendritic cells [7, 14] | activation of the NF-κB transcription factor in THP1-Dual cells [8, 15] | activation of the NF-κB transcription factor in THP1-Dual cells [8, 16] | concentration from which transcription of the genes coding for TNFα and IL-1β is reduced [9] | also measured
COC(=O)c1c(NC(=O)C(F)(F)F)c(C#N)nn1-c1cccc(OC)c1 [Compound of formula (IX), methyl 3-cyano-1-(3-methoxyphenyl)-4-(2,2,2-trifluoroacetamido)-1H-pyrazole-5-carboxylate] | inhibit | 400 nM | capable of blocking | inhibit |  |  |  |  |  |  |  |  |  |  |  |  |  |  |  |  | 
COc1cccc(NN=C(C#N)C#N)c1 [Compound of formula (V), 2-[(3-methoxyphenyl)hydrazinylidene]propanedinitrile] | inhibit |  | capable of blocking | inhibit | capable of blocking | capable of blocking | inhibit | inhibit | inhibit | inhibit | inhibit | fail to inhibit | 3.8 µM | capable of blocking | capable of blocking | no impact | inhibit | inhibit | inhibit | ≥ 5 µM | IC50 (IRFs): 3000 nM; production of TNFα on plasmacytoid dendritic cells ([7]; Condition A: 20 μM, 1 h before stimulation of TLR7 (R848 5 μg/ml)): inhibit; production of TNFα on plasmacytoid dendritic cells ([7]; Condition C: 20 μM, 1 h before stimulation of TLR9 (CpG-A)): inhibit; concentration from which transcription of the genes coding for TNFα, IL-6, MCP1 and IL-1β is reduced [9]: ≥ 5 µM
COc1ccc(NN=C(C#N)C#N)cc1 [Compound of formula (VI), 2-[(4-methoxyphenyl)hydrazinylidene]propanedinitrile] | inhibit | 3000 nM | capable of blocking | inhibit | capable of blocking | capable of blocking | inhibit | inhibit | inhibit | inhibit | inhibit | fail to inhibit | 5 µM | capable of blocking | capable of blocking | no impact | inhibit | inhibit | inhibit | ≥ 1 µM | production of TNFα on plasmacytoid dendritic cells [7]: inhibit; concentration from which transcription of the genes coding for TNFα, IL-6, MCP1 and IL-1β is reduced [9]: ≥ 2 µM
COc1cccc(-n2nc3c(N)cc(-c4ccccc4)nc3c2C(=O)NCc2ccccc2)c1 [Compound of formula (VII), 7-amino-N-benzyl-2-(3-methoxyphenyl)-5-phenyl-2H-pyrazolo[4,3-b]pyridine-3-carboxamide] |  | 23000 nM | capable of blocking |  |  |  |  |  |  |  |  |  |  |  | capable of blocking |  |  |  |  |  | 
COc1cccc(-n2nc3c(N)cc(-c4ccccc4)nc3c2C(=O)NN)c1 [Compound of formula (VIII), 7-amino-2-(3-methoxyphenyl)-5-phenyl-2H-pyrazolo[4,3-b]pyridine-3-carbohydrazide] | inhibit | 23000 nM | capable of blocking | inhibit |  |  |  |  |  | inhibit |  |  |  |  | capable of blocking |  |  |  |  |  | 

Reference: US20250108029A1, “INHIBITORS OF THE INTERACTION BETWEEN THE ROCK AND PDK1 PROTEIN KINASES” (Université Paris Cite, priority 2021, published 2025)
